US11180504B2 (ORCHID PHARMA LTD., priority 2016, dated 2021)
≈ marks a conversion by molar mass, not a printed value.

Key:
[1] = system: methicillin-sensitive Staphylococcus aureus; experiment: MIC by broth micro-dilution (CLSI), methicillin-sensitive S. aureus; assay type: cell-based; settings: Staphylococcus aureus, ATCC 29213 / MSSA, MSSA S. aureus ATCC29213; read-out: MIC
[2] = system: carbapenem sensitive Escherichia coli; experiment: MIC by broth micro-dilution (CLSI), carbapenem sensitive E. coli; assay type: cell-based; settings: Escherichia coli, ATCC25922, ESBL −ve E. coli ATCC25922; read-out: MIC
[3] = system: extended spectrum β lactamase (ESBL) SHV18 producing Klebsiella pneumoniae; experiment: MIC by broth micro-dilution (CLSI), ESBL SHV18 producing K. pneumoniae; assay type: cell-based; settings: Klebsiella pneumoniae, ATCC700603, 22 h, ESBL +ve (SHV-18) K. pneumoniae ATCC700603; read-out: MIC
[4] = system: carbapenemase producing K. pneumoniae; experiment: MIC by broth micro-dilution (CLSI), carbapenemase producing K. pneumoniae; assay type: cell-based, Klebsiella pneumoniae; settings: Klebsiella pneumoniae, ATCCBAA1705, KPC-2 K. pneumoniae ATCC BAA-1705; read-out: MIC
[5] = system: carbapenem sensitive Pseudomonas aeruginosa; experiment: MIC by broth micro-dilution (CLSI), carbapenem sensitive P. aeruginosa; assay type: cell-based; settings: Pseudomonas aeruginosa, ATCC27853, Meropenem susceptible P. aeruginosa ATCC27853; read-out: MIC

| SMILES | MIC [1] | MIC [2] | MIC [3] | MIC [4] | MIC [5] |
| --- | --- | --- | --- | --- | --- |
| C[C@@H](NS(=O)(=O)c1ccccc1)[C@H]1C(=O)N2C(C(=O)O)=C(S[C@@H]3CN[C@H](C(=O)N(C)C)C3)[C@H](C)[C@H]12 [Example 11] | 8 µg/mL (≈ 15.3 µM) | 4 µg/mL (≈ 7.65 µM) | 64 µg/mL (≈ 122 µM) | 32 µg/mL (≈ 61.2 µM) | > 128 µg/mL |
| CNCC(=O)N[C@H](C)[C@H]1C(=O)N2C(C(=O)O)=C(S[C@@H]3CN[C@H](C(=O)N4CC[C@@H](O)C4)C3)[C@H](C)[C@H]12 [Example 192] | 64 µg/mL (≈ 129 µM) | 1 µg/mL (≈ 2.02 µM) | 2 µg/mL (≈ 4.04 µM) | 2 µg/mL (≈ 4.04 µM) | 4 µg/mL (≈ 8.07 µM) |
| CNCCC(=O)N[C@H](C)[C@H]1C(=O)N2C(C(=O)O)=C(S[C@@H]3CN[C@H](C(=O)N(C)C)C3)[C@H](C)[C@H]12 [Example 166] | 64 µg/mL (≈ 137 µM) | 4 µg/mL (≈ 8.55 µM) | 8 µg/mL (≈ 17.1 µM) | 8 µg/mL (≈ 17.1 µM) | 32 µg/mL (≈ 68.4 µM) |
| C[C@@H](NC(=O)[C@H](N)CO)[C@H]1C(=O)N2C(C(=O)O)=C(S[C@@H]3CN[C@H](C(=O)N(C)C)C3)[C@H](C)[C@H]12 [Example 56] | 64 µg/mL (≈ 136 µM) | 8 µg/mL (≈ 17 µM) | 16 µg/mL (≈ 34.1 µM) | 16 µg/mL (≈ 34.1 µM) | 64 µg/mL (≈ 136 µM) |
| CNC(=O)C(=O)N[C@H](C)[C@H]1C(=O)N2C(C(=O)O)=C(S[C@@H]3CN[C@H](C(=O)N(C)C)C3)[C@H](C)[C@H]12 [Example 75] | 4 µg/mL (≈ 8.56 µM) | 1 µg/mL (≈ 2.14 µM) | 8 µg/mL (≈ 17.1 µM) | 16 µg/mL (≈ 34.2 µM) | > 128 µg/mL |
| C[C@@H](NS(C)(=O)=O)[C@H]1C(=O)N2C(C(=O)O)=C(S[C@@H]3CN[C@H](C(=O)N4CC[N+](C)(CC(N)=O)CC4)C3)[C@H](C)[C@H]12 [Example 39] | 16 µg/mL | 4 µg/mL | 16 µg/mL | 16 µg/mL | 16 µg/mL |
| C[C@@H](NS(C)(=O)=O)[C@H]1C(=O)N2C(C(=O)O)=C(S[C@@H]3CN[C@H](C(=O)N4CCN(C)CC4)C3)[C@H](C)[C@H]12 [Example 23] | 16 µg/mL (≈ 31 µM) | 0.5 µg/mL (≈ 0.97 µM) | 1 µg/mL (≈ 1.94 µM) | 8 µg/mL (≈ 15.5 µM) | 32 to 128 µg/mL (≈ 62.1 to 248 µM) |
| C[C@@H](NC(=O)[C@H]1CCCN1)[C@H]1C(=O)N2C(C(=O)O)=C(S[C@@H]3CN[C@H](C(=O)N(C)C)C3)[C@H](C)[C@H]12 [Example 227] | 64 µg/mL (≈ 133 µM) | 2 µg/mL (≈ 4.17 µM) | 8 µg/mL (≈ 16.7 µM) | 4 µg/mL (≈ 8.34 µM) | 32 µg/mL (≈ 66.7 µM) |
| CNCC(=O)N[C@H](C)[C@H]1C(=O)N2C(C(=O)O)=C(S[C@@H]3CN[C@H](C(=O)N4C[C@H](N)[C@@H](F)C4)C3)[C@H](C)[C@H]12 [Example 217] | 16 µg/mL (≈ 31.2 µM) | 0.5 µg/mL (≈ 0.975 µM) | 1 µg/mL (≈ 1.95 µM) | 1 µg/mL (≈ 1.95 µM) | 2 µg/mL (≈ 3.9 µM) |
| CC(C)OC(=O)C(=O)N[C@H](C)[C@H]1C(=O)N2C(C(=O)O)=C(S[C@@H]3CN[C@H](C(=O)N(C)C)C3)[C@H](C)[C@H]12 [Example 73] | 4 µg/mL (≈ 8.05 µM) | 1 to 2 µg/mL (≈ 2.01 to 4.03 µM) | 4 µg/mL (≈ 8.05 µM) | 8 µg/mL (≈ 16.1 µM) | 4 to 16 µg/mL (≈ 8.05 to 32.2 µM) |
| CNCC(=O)N[C@H](C)[C@H]1C(=O)N2C(C(=O)O)=C(S[C@@H]3CN[C@H](C(=O)N4CC[C@@H](NC)C4)C3)[C@H](C)[C@H]12 [Example 179] | 128 µg/mL (≈ 252 µM) | 2 µg/mL (≈ 3.93 µM) | 16 µg/mL (≈ 31.5 µM) | 8 µg/mL (≈ 15.7 µM) | 16 µg/mL (≈ 31.5 µM) |

The remaining compounds from weak to strong by MIC [1], led by results:

| MIC [1] | MIC [2] | MIC [3] | MIC [4] | MIC [5] | SMILES |
| --- | --- | --- | --- | --- | --- |
| 4 µg/mL (≈ 8.05 µM) | 8 µg/mL (≈ 16.1 µM) | > 128 µg/mL | > 128 µg/mL | > 128 µg/mL | CC(C)C[C@H](O)C(=O)N[C@H](C)[C@H]1C(=O)N2C(C(=O)O)=C(S[C@@H]3CN[C@H](C(=O)N(C)C)C3)[C@H](C)[C@H]12 [Example 67] |
| 4 µg/mL (≈ 8.2 µM) | 4 µg/mL (≈ 8.2 µM) | 64 µg/mL (≈ 131 µM) | 16 µg/mL (≈ 32.8 µM) | 64 µg/mL (≈ 131 µM) | C[C@@H](NC(=O)C(F)F)[C@H]1C(=O)N2C(C(=O)O)=C(S[C@@H]3CN[C@H](CN4CC[C@H](N)C4)C3)[C@H](C)[C@H]12 [Example 150] |
| 2 µg/mL (≈ 3.76 µM) | 2 µg/mL (≈ 3.76 µM) | 8 µg/mL (≈ 15 µM) | 8 µg/mL (≈ 15 µM) | 16 µg/mL (≈ 30.1 µM) | C[C@@H](NC(=O)C(F)F)[C@H]1C(=O)N2C(C(=O)O)=C(S[C@@H]3CN[C@H](C(=O)N4CCO[C@H](CN)C4)C3)[C@H](C)[C@H]12 [Example 126] |
| 2 µg/mL (≈ 4.25 µM) | 1 µg/mL (≈ 2.12 µM) | 8 µg/mL (≈ 17 µM) | 16 µg/mL (≈ 34 µM) | 128 µg/mL (≈ 272 µM) | CCOC(=S)N[C@H](C)[C@H]1C(=O)N2C(C(=O)O)=C(S[C@@H]3CN[C@H](C(=O)N(C)C)C3)[C@H](C)[C@H]12 [Example 20] |
| 2 µg/mL (≈ 3.57 µM) | 0.5 µg/mL (≈ 0.894 µM) | 2 µg/mL (≈ 3.57 µM) | 4 µg/mL (≈ 7.15 µM) | 64 µg/mL (≈ 114 µM) | COC(=O)N[C@H]1CCN(C(=O)[C@@H]2C[C@H](SC3=C(C(=O)O)N4C(=O)[C@H]([C@@H](C)NC(=O)C(F)F)[C@H]4[C@H]3C)CN2)C1 [Example 123] |
| 2 µg/mL (≈ 3.97 µM) | 2 µg/mL (≈ 3.97 µM) | 8 µg/mL (≈ 15.9 µM) | 8 µg/mL (≈ 15.9 µM) | 64 µg/mL (≈ 127 µM) | C[C@@H](NC(=O)C(F)F)[C@H]1C(=O)N2C(C(=O)O)=C(S[C@@H]3CN[C@H](C(=O)NCCN(C)C)C3)[C@H](C)[C@H]12 [Example 102] |
| 2 µg/mL (≈ 3.33 µM) | 1 µg/mL (≈ 1.66 µM) | 4 µg/mL (≈ 6.66 µM) | 8 µg/mL (≈ 13.3 µM) | 32 µg/mL (≈ 53.3 µM) | C[C@@H](NC(=O)C(F)F)[C@H]1C(=O)N2C(C(=O)O)=C(S[C@@H]3CN[C@H](C(=O)N4CC[C@H](NC(=O)CNC(=N)N)C4)C3)[C@H](C)[C@H]12 [Example 196] |
| 2 µg/mL (≈ 3.49 µM) | 1 µg/mL (≈ 1.75 µM) | 8 µg/mL (≈ 14 µM) | 8 µg/mL (≈ 14 µM) | 32 µg/mL (≈ 55.9 µM) | CNCC(=O)N[C@@H]1CCN(C(=O)[C@@H]2C[C@H](SC3=C(C(=O)O)N4C(=O)[C@H]([C@@H](C)NC(=O)C(F)F)[C@H]4[C@H]3C)CN2)C1 [Example 155] |
| 2 µg/mL (≈ 3.78 µM) | 0.5 µg/mL (≈ 0.946 µM) | 4 µg/mL (≈ 7.57 µM) | 8 µg/mL (≈ 15.1 µM) | 4 µg/mL (≈ 7.57 µM) | C[C@@H](NC(=O)C(F)F)[C@H]1C(=O)N2C(C(=O)O)=C(S[C@@H]3CN[C@H](C(=O)N4CC[C@H](NC=N)C4)C3)[C@H](C)[C@H]12 [Example 184] |
| 2 µg/mL (≈ 3.76 µM) | 2 µg/mL (≈ 3.76 µM) | 8 µg/mL (≈ 15 µM) | 16 µg/mL (≈ 30.1 µM) | 32 µg/mL (≈ 60.2 µM) | C[C@@H](NC(=O)C(F)F)[C@H]1C(=O)N2C(C(=O)O)=C(SC3CN[C@H](C(=O)N4CCO[C@@H](CN)C4)C3)[C@H](C)[C@H]12 (stereo partly shown) [Example 127] |
| 1 µg/mL (≈ 1.94 µM) | 0.5 µg/mL (≈ 0.97 µM) | 4 µg/mL (≈ 7.76 µM) | 4 µg/mL (≈ 7.76 µM) | 16 µg/mL (≈ 31 µM) | C[C@@H](NC(=O)C(F)F)[C@H]1C(=O)N2C(C(=O)O)=C(S[C@@H]3CN[C@H](C(=O)N4CCCNCC4)C3)[C@H](C)[C@H]12 [Example 162] |
| 1 µg/mL (≈ 2.12 µM) | 1 µg/mL (≈ 2.12 µM) | 8 µg/mL (≈ 16.9 µM) | 8 µg/mL (≈ 16.9 µM) | 64 µg/mL (≈ 135 µM) | C[C@@H](NC(=O)C(F)F)[C@H]1C(=O)N2C(C(=O)O)=C(S[C@@H]3CNC(CN4CCCC4)C3)[C@H](C)[C@H]12 (stereo partly shown) [Example 81] |
| 1 µg/mL (≈ 2.43 µM) | 8 µg/mL (≈ 19.4 µM) | 128 µg/mL (≈ 311 µM) | 64 µg/mL (≈ 156 µM) | > 128 µg/mL | C[C@@H](NC(=O)C(F)F)[C@H]1C(=O)N2C(C(=O)O)=C(SCc3ccncc3)[C@H](C)[C@H]12 [Example 97] |
| 0.5 µg/mL (≈ 0.997 µM) | 0.5 µg/mL (≈ 0.997 µM) | 4 µg/mL (≈ 7.98 µM) | 8 µg/mL (≈ 16 µM) | 8 µg/mL (≈ 16 µM) | C[C@@H](NC(=O)C(F)F)[C@H]1C(=O)N2C(C(=O)O)=C(S[C@@H]3CN[C@H](C(=O)N4CC[C@H](N)C4)C3)[C@H](C)[C@H]12 [Example 103] |
| 0.25 µg/mL | 64 µg/mL | > 128 µg/mL | > 128 µg/mL | > 128 µg/mL | C[C@@H](NC(=O)C(F)F)[C@H]1C(=O)N2C(C(=O)O)=C(Sc3nc(-c4cc[n+](C)cc4)cs3)[C@H](C)[C@H]12 [Example 94] |
